Data from BigSolDB 2.1.

COC(=O)c1ccccc1S(N)(=O)=O
Settings	solubility (mole fraction)
in 2-butanone, 273.15 K	0.028
in 2-butanone, 278.15 K	0.0329
in 2-butanone, 283.15 K	0.0385
in 2-butanone, 287.95 K	0.0446
in 2-butanone, 293.85 K	0.0529
in 2-butanone, 298.75 K	0.0609
in 2-butanone, 303.45 K	0.0691
in 2-butanone, 308.15 K	0.0784
in 2-butanone, 313.85 K	0.0907
in 2-butanone, 318.65 K	0.102
in 2-butanone, 324.15 K	0.117
in 2-pentanone, 273.15 K	0.0185
in 2-pentanone, 278.15 K	0.0218
in 2-pentanone, 283.15 K	0.0256
in 2-pentanone, 287.95 K	0.0298
in 2-pentanone, 293.85 K	0.0355
in 2-pentanone, 298.75 K	0.0409
in 2-pentanone, 303.45 K	0.0466
in 2-pentanone, 308.15 K	0.053
in 2-pentanone, 313.85 K	0.0617
in 2-pentanone, 318.65 K	0.0695
in 2-pentanone, 324.15 K	0.0797
in acetone, 273.15 K	0.0414
in acetone, 278.15 K	0.0483
in acetone, 283.15 K	0.0561
in acetone, 287.95 K	0.0643
in acetone, 293.85 K	0.0757
in acetone, 298.75 K	0.0863
in acetone, 303.45 K	0.0976
in acetone, 308.15 K	0.11
in acetone, 313.85 K	0.126
in acetone, 318.65 K	0.141
in acetone, 324.15 K	0.16
in acetonitrile, 273.15 K	0.0188
in acetonitrile, 278.15 K	0.0231
in acetonitrile, 283.15 K	0.0282
in acetonitrile, 287.95 K	0.0339
in acetonitrile, 293.85 K	0.0423
in acetonitrile, 298.75 K	0.0504
in acetonitrile, 303.45 K	0.0594
in acetonitrile, 308.15 K	0.0695
in acetonitrile, 313.85 K	0.0835
in acetonitrile, 318.65 K	0.0975
in acetonitrile, 324.15 K	0.115
in cyclopentanone, 273.15 K	0.0537
in cyclopentanone, 278.15 K	0.0616
in cyclopentanone, 283.15 K	0.0704
in cyclopentanone, 287.95 K	0.0795
in cyclopentanone, 293.85 K	0.092
in cyclopentanone, 298.75 K	0.103
in cyclopentanone, 303.45 K	0.115
in cyclopentanone, 308.15 K	0.128
in cyclopentanone, 313.85 K	0.145
in cyclopentanone, 318.65 K	0.16
in cyclopentanone, 324.15 K	0.179
in ethanol, 272.15 K	0.00172
in ethanol, 278.75 K	0.00252
in ethanol, 283.15 K	0.00322
in ethanol, 288.15 K	0.0042
in ethanol, 293.05 K	0.0054
in ethanol, 298.05 K	0.00692
in ethanol, 303.15 K	0.00887
in ethanol, 308.05 K	0.0112
in ethanol, 312.15 K	0.0134
in ethanol, 318.15 K	0.0175
in ethanol, 324.15 K	0.0226
in ethyl acetate, 273.15 K	0.0112
in ethyl acetate, 278.15 K	0.0135
in ethyl acetate, 283.15 K	0.0162
in ethyl acetate, 287.95 K	0.0192
in ethyl acetate, 293.85 K	0.0236
in ethyl acetate, 298.75 K	0.0278
in ethyl acetate, 303.45 K	0.0323
in ethyl acetate, 308.15 K	0.0373
in ethyl acetate, 313.85 K	0.0444
in ethyl acetate, 318.65 K	0.0509
in ethyl acetate, 324.15 K	0.0596
in ethyl formate, 273.15 K	0.00969
in ethyl formate, 278.15 K	0.0119
in ethyl formate, 283.15 K	0.0145
in ethyl formate, 287.95 K	0.0174
in ethyl formate, 293.85 K	0.0215
in ethyl formate, 298.75 K	0.0256
in ethyl formate, 303.45 K	0.03
in ethyl formate, 308.15 K	0.0351
in ethyl formate, 313.85 K	0.0421
in ethyl formate, 318.65 K	0.049
in ethyl formate, 324.15 K	0.0578
in isobutanol, 272.15 K	0.000673
in isobutanol, 278.75 K	0.001
in isobutanol, 283.15 K	0.00129
in isobutanol, 288.15 K	0.00171
in isobutanol, 293.05 K	0.00224
in isobutanol, 298.05 K	0.00291
in isobutanol, 303.15 K	0.00378
in isobutanol, 308.05 K	0.00479
in isobutanol, 312.15 K	0.00586
in isobutanol, 318.15 K	0.00775
in isobutanol, 324.15 K	0.0101
in isopentanol, 272.15 K	0.000712
in isopentanol, 278.75 K	0.00105
in isopentanol, 283.15 K	0.00135
in isopentanol, 288.15 K	0.00177
in isopentanol, 293.05 K	0.00229
in isopentanol, 298.05 K	0.00296
in isopentanol, 303.15 K	0.00381
in isopentanol, 308.05 K	0.00483
in isopentanol, 312.15 K	0.00586
in isopentanol, 318.15 K	0.00764
in isopentanol, 324.15 K	0.00989
in isopropanol, 272.15 K	0.000871
in isopropanol, 278.75 K	0.00134
in isopropanol, 283.15 K	0.00176
in isopropanol, 288.15 K	0.00239
in isopropanol, 293.05 K	0.00317
in isopropanol, 298.05 K	0.00422
in isopropanol, 303.15 K	0.00557
in isopropanol, 308.05 K	0.00726
in isopropanol, 312.15 K	0.00894
in isopropanol, 318.15 K	0.0121
in isopropanol, 324.15 K	0.0161
in methanol, 272.15 K	0.00311
in methanol, 278.75 K	0.00462
in methanol, 283.15 K	0.00595
in methanol, 288.15 K	0.00788
in methanol, 293.05 K	0.0102
in methanol, 298.05 K	0.0133
in methanol, 303.15 K	0.0171
in methanol, 308.05 K	0.0217
in methanol, 312.15 K	0.0264
in methanol, 318.15 K	0.0348
in methanol, 324.15 K	0.0454
in methyl acetate, 273.15 K	0.0162
in methyl acetate, 278.15 K	0.0196
in methyl acetate, 283.15 K	0.0235
in methyl acetate, 287.95 K	0.0279
in methyl acetate, 293.85 K	0.0341
in methyl acetate, 298.75 K	0.04
in methyl acetate, 303.45 K	0.0465
in methyl acetate, 308.15 K	0.0537
in methyl acetate, 313.85 K	0.0637
in methyl acetate, 318.65 K	0.0731
in methyl acetate, 324.15 K	0.0851
in n-butanol, 272.15 K	0.00092
in n-butanol, 278.75 K	0.00137
in n-butanol, 283.15 K	0.00177
in n-butanol, 288.15 K	0.00234
in n-butanol, 293.05 K	0.00307
in n-butanol, 298.05 K	0.004
in n-butanol, 303.15 K	0.00518
in n-butanol, 308.05 K	0.00659
in n-butanol, 312.15 K	0.00801
in n-butanol, 318.15 K	0.0106
in n-butanol, 324.15 K	0.0139
in n-pentanol, 272.15 K	0.000797
in n-pentanol, 278.75 K	0.00118
in n-pentanol, 283.15 K	0.0015
in n-pentanol, 288.15 K	0.00197
in n-pentanol, 293.05 K	0.00255
in n-pentanol, 298.05 K	0.0033
in n-pentanol, 303.15 K	0.00424
in n-pentanol, 308.05 K	0.00534
in n-pentanol, 312.15 K	0.0065
in n-pentanol, 318.15 K	0.00849
in n-pentanol, 324.15 K	0.011
in n-propanol, 272.15 K	0.00106
in n-propanol, 278.75 K	0.00159
in n-propanol, 283.15 K	0.00206
in n-propanol, 288.15 K	0.00274
in n-propanol, 293.05 K	0.00357
in n-propanol, 298.05 K	0.00469
in n-propanol, 303.15 K	0.00609
in n-propanol, 308.05 K	0.00778
in n-propanol, 312.15 K	0.00946
in n-propanol, 318.15 K	0.0125
in n-propanol, 324.15 K	0.0164
